{"source": "patent US20160069887A1", "about": "“BIOMARKERS FOR PROGNOSIS” (ISIS INNOVATION LIMITED, priority 2013, published 2016)", "molecules": {"B1": {"name": "HR23B ΔUbL, myc/his tagged (other)", "chain": "AVSTPAPATTQQSAPASTTAVTSSTTTTVAQAPTPVPALAPTSTPASITPASATASSEPAPASAAKQEKPAEKPAETPVATSPTATDSTSGDSSRSNLFEDATSALVTGQSYENMVTEIMSMGYEREQVIAALRASFNNPDRAVEYLLMGIPGDRESQAVVDPPQAASTGAPQSSAVAAAAATTTATTTTTSSGGHPLEFLRNQPQFQQMRQIIQQNPSLLPALLQQIGRENPQLLQQISQHQEHFIQMLNEPVQEAGGQGGGGGGGSGGIAEAGSGHMNYIQVTPQEKEAIERLKALGFPEGLVIQAYFACEKNENLAANFLLQQNFDED", "notes": "not shown: myc/his tag from the pcDNA3.1 (+)/Myc-His vector"}}, "key": {"[1]": {"system": "Flag-HDAC6 stable inducible cell line", "assay": "Immunoblot of endogenous HR23B and cleaved caspase 3 upon induction of Flag-HDAC6", "settings": "for HDAC6-dependent down-regulation of HR23B: Dox-induced Flag-HDAC6, 3MA 5 and 10 mM, 17-AAG 0.1 or 1 μM, tubastatin 10 μM, bortezomib 48 hr"}, "U2OS cells [2]": {"system": "U2OS cells", "assay": "Immunoblot for apoptosis (PARP) and autophagy (LC3 cleavage)", "type": "cell-based", "settings": "co-treatment SAHA and 3-methyladenine (10 mM) for 18 hr"}, "U2OS cells [3]": {"system": "U2OS cells", "assay": "Global ubiquitination (His6-ubiquitin, Ni2+ pull-down, anti-His immunoblot)", "type": "cell-based", "settings": "for global ubiquitination, SAHA and MG132 combined: SAHA 5 μM 20 hr and MG132 20 μM 4 hr", "method": "Cell lysates and Ni^2+ pull-down eluates were analyzed by immunoblotting with anti-His as described. The input HR23B is shown underneath, together with actin levels.\nNi^2+ pull-down eluates were analyzed by immunoblotting with anti-His. The input HR23B level is shown underneath, together with actin levels.\nTransfected cells in a 10 cm dish were washed twice with ice-cold PBS and harvested into 1 ml of 8M urea, 0.1 M Na2HPO4/NaH2PO4, 0.01M Tris-HCl, and pH8.0. Lysates were sheared by taking through 23 gauge needle to reduce viscosity. Protein concentration was measured with Bradford (Bio-Rad) and normalised. About 100 μl of lysate was mixed with 4×SDS loading buffer for input. Then 900 μl of lysate was incubated with 70 μl of a 50% slurry of nickel (Ni^2+-NTA)-agarose beads (Qiagen), 5 mM imidazole and 10 mM β-mercaptoethanol overnight at 4° C. The beads were collected by 1 min centrifugation at 8,000 rpm and washed with 750 μl of the following buffers with 5 min mixing at room temperature for each washing step: twice with 8M urea, 0.1M Na2HPO4/NaH2PO4, 0.01 M Tris-HCl, pH 8.0, 10 mM β-mercaptoethanol and 0.1% Triton X-100; three times with 8M urea, 0.1M Na2HPO4/NaH2PO4, 0.01M Tris-HCl, pH 6.3, 10 mM β-mercaptoethanol and 0.1% Triton X-100. The bound proteins were then eluted with 100 μl of elution buffer (200 mM imidazole, 5% SDS, 150 mM Tris-HCl pH6.8, 30% glycerol, 720 mM β-mercaptoethanol, 0.005% bromophenol blue) for 30 min incubation followed by 10 min spin at 13,000 rpm. Samples were heated to 95° C. for 5 min, cooled, and a typical volume of 30 μl loaded on each lane for immunoblot analysis."}, "U2OS cells [4]": {"system": "U2OS cells", "assay": "Visualisation of autophagosomes by anti-LC3 immunostaining", "type": "cell-based", "method": "Counter-stain with DAPI was superimposed for each image.\nCells seeded onto coverslips were washed in PBS and fixed in 3.7% formaldehyde for 15 min. Cells were permeabilised in PBS containing 0.5% Triton X-100 for 5 min and then blocked in 5% FCS/PBS for 30 min at room temperature before incubation with primary antibody as indicted. Coverslips were washed in PBS containing 0.05% Tween-20 and incubated with corresponding secondary antibodies for 30 min at room temperature. Alexa Fluro 488 (green fluorescence) or Alexa Fluor 594 (red fluorescence) (Molecular Probes). Finally coverslips were washed extensively in PBS containing 0.05% Tween-20 and mounted onto microscope slides using Vectashield containing DAPI (Vector Laboratories)."}, "[5]": {"system": "HUT78, MYLA (CTCL), A2058, A375 (melanoma), HCT116 and HCT15 (CRC)", "assay": "Immunoblot of autophagy markers and HR23B in tumour cell lines treated with HDAC inhibitors", "type": "cell-based", "settings": "for autophagy markers (LC3 cleavage, LAMP1, cathepsin D): immunoblot after 18 hr or 24 hr treatment"}, "[6]": {"system": "patients after potentially-curative surgery for stage II/III colorectal cancer", "settings": "1167 rofecoxib patients; median follow-up 4.84 years; cited from earlier work"}, "[7]": {"target": "T1, Flag-HDAC6 (wild-type, full length, ectopic) (human, UniProt Q9UBN7 1-1215)", "T1 construct": "Expressed by transfection or by doxycycline induction in U2OS cells; also called pcDNA-Flag-HDAC6; WT HDAC6; not shown: Flag tag", "T1 sequence": "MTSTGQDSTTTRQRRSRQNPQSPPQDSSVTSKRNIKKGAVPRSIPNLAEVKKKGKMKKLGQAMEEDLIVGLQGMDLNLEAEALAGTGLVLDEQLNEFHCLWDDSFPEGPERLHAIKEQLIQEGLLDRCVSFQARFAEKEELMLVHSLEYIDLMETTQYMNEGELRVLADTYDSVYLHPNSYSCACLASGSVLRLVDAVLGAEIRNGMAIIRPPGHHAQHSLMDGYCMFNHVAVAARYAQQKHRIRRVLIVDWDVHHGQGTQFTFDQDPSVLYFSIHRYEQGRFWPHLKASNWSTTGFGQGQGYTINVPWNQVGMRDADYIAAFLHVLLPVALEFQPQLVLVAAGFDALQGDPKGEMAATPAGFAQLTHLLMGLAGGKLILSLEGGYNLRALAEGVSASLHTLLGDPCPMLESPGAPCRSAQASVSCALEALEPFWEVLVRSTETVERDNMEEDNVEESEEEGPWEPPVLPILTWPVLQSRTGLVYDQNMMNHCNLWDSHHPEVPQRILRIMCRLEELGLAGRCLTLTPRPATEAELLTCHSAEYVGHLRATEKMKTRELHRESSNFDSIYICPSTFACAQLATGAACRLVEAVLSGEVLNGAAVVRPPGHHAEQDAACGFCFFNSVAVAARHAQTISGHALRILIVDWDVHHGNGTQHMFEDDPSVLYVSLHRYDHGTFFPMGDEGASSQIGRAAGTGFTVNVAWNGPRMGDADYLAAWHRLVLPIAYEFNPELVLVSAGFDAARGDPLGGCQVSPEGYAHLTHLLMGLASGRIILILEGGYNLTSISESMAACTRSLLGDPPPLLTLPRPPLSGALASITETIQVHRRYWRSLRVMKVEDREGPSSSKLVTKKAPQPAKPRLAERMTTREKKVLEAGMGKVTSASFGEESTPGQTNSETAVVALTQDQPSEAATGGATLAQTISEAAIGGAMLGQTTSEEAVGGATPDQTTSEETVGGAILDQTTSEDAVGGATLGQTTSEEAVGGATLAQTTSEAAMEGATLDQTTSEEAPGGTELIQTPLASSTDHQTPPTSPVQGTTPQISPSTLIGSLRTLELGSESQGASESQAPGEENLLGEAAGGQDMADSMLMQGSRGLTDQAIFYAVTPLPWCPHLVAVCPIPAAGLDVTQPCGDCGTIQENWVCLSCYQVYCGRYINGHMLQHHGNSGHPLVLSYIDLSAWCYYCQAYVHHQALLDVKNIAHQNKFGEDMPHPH", "assay": "anti-Flag co-immunoprecipitation of Flag-HDAC6 from co-transfected U2OS cells, anti-Myc immunoblot"}}, "note": "Where a SMILES comes first, the peptide text is derived from it. The star is where a group is joined. Cbz = O=C(OCc1ccccc1)*"}
{"molecule": "Cn1cnc(N)c2ncnc1-2", "note": "[3-MA, 3-methyladenine]", "values": [{"measurement": "HDAC6-dependent down-regulation of HR23B", "setting": "[1]", "result": "failed to affect down-regulation of HR23B by HDAC6"}, {"measurement": "level of apoptosis", "setting": "U2OS cells [2]", "result": "an enhanced level of apoptosis was apparent"}]}
{"molecule": "C=CCNC1=C2C[C@@H](C)C[C@H](OC)[C@H](O)[C@@H](C)/C=C(\\C)[C@H](OC(N)=O)[C@@H](OC)/C=C\\C=C(/C)C(=O)NC(=CC1=O)C2=O", "note": "[17-AAG]", "values": [{"measurement": "HDAC6-dependent down-regulation of HR23B", "setting": "[1]", "result": "HDAC6 failed to down-regulate HR23B"}]}
{"molecule": "CC(C)C[C@@H](C=O)NC(=O)[C@H](CC(C)C)NC(=O)[C@H](CC(C)C)NC(=O)OCc1ccccc1", "note": "[MG132] (Cbz-Leu-Leu-Leu-aldehyde)", "values": [{"measurement": "global ubiquitination, SAHA and MG132 combined", "setting": "U2OS cells [3]", "result": "even greater level of ubiquitination"}, {"measurement": "global ubiquitination, single agent", "setting": "U2OS cells [3]; SAHA 5 μM 20 hr or MG132 20 μM 4 hr, vs untreated", "result": "increase in ubiquitination"}]}
{"molecule": "O=C(CCCCCCC(=O)Nc1ccccc1)NO", "note": "[SAHA, N-hydroxy-N′-phenyloctanediamide]", "values": [{"measurement": "autophagosomes when ectopic HR23B was expressed", "setting": "U2OS cells [4]; SAHA 10 μM for 18 hr, + vs − doxycycline", "result": "less evident"}, {"measurement": "visual appearance of autophagosomes", "setting": "U2OS cells [4]; SAHA 10 and 20 μM", "result": "visual appearance of autophagosomes in cells"}, {"measurement": "level of apoptosis", "setting": "U2OS cells [2]", "result": "an enhanced level of apoptosis was apparent"}, {"measurement": "level of HR23B", "setting": "[5]; at increasing SAHA concentration, coinciding with autophagocytic markers", "result": "decreased levels of HR23B"}, {"measurement": "autophagy markers (LC3 cleavage, LAMP1, cathepsin D)", "setting": "[5]", "result": "caused LC3 cleavage as well as the appearance of LAMP1 and cathepsin D"}, {"measurement": "global ubiquitination, SAHA and MG132 combined", "setting": "U2OS cells [3]", "result": "even greater level of ubiquitination"}]}
{"molecule": "CS(=O)(=O)c1ccc(C2=C(c3ccccc3)C(=O)OC2)cc1", "note": "[rofecoxib]", "values": [{"measurement": "deaths", "setting": "[6]", "result": 241}, {"measurement": "recurrences", "setting": "[6]", "result": 297}]}
{"molecule": "CCCC(CCC)C(=O)O", "note": "[valproic acid, 2-Propylpentanoic acid]", "values": [{"measurement": "autophagy markers (LC3 cleavage, LAMP1, cathepsin D)", "setting": "[5]", "result": "resulted in similar effects"}]}
{"molecule": "tubastatin", "values": [{"measurement": "HDAC6-dependent down-regulation of HR23B", "setting": "[1]", "result": "did not impact on the HDAC6-dependent down-regulation of HR23B"}, {"measurement": "increase in HR23B upon 17-AAG treatment", "setting": "[1]; tubastatin 10 μM together with 17-AAG", "result": "did prevent the increase in HR23B upon 17-AAG treatment"}]}
{"molecule": "B1", "values": [{"measurement": "binding result", "setting": "[7]", "result": "no binding"}]}
